Reference: the supplement of paper PMC10307832

Tests used:
Test in all cases: relative viability (nuclei count vs DMSO), 5 days (fraction); higher = more cells survive
NCI-H460 = system: NCI-H460
Method in brief: (§1)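 Relative viability is defined as nuclei in treated wells over nuclei in vehicle wells. Duplicate plates were run and medians reported. Lung cancer cell lines in 1536-well plates were dosed by pin tool one day after seeding, with one drug or with a fixed anchor-drug dose plus five library-drug doses (not always all listed) in √10 steps, and nuclei were counted after 5 days.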

NCI-H727 = system: NCI-H727
Method in brief: as §1

LCLC-97TM1 = system: LCLC-97TM1
Method in brief: as §1

NCI-H2347 = system: NCI-H2347
Method in brief: as §1

H3255 = system: H3255
Method in brief: as §1

NCI-H650 = system: NCI-H650
Method in brief: as §1

LK-2 = system: LK-2
Method in brief: as §1

NCI-H1563 = system: NCI-H1563
Method in brief: as §1

COR-L23 = system: COR-L23
Method in brief: as §1

201T = system: 201T
Method in brief: as §1

PC-3 [JPC-3] = system: PC-3 [JPC-3]
Method in brief: as §1

LCLC-103H = system: LCLC-103H
Method in brief: as §1

A-427 = system: A-427
Method in brief: as §1

NCI-H23 = system: NCI-H23
Method in brief: as §1

NCI-H1944 = system: NCI-H1944
Method in brief: as §1

NCI-H1650 = system: NCI-H1650
Method in brief: as §1

NCI-H838 = system: NCI-H838
Method in brief: as §1

PC-14 = system: PC-14
Method in brief: as §1

NCI-H1793 = system: NCI-H1793
Method in brief: as §1

LU99A = system: LU99A
Method in brief: as §1

SW 1573 = system: SW 1573
Method in brief: as §1

HCC-44 = system: HCC-44
Method in brief: as §1

In the case of `NC(=O)Nc1cc(-c2cccc(F)c2)sc1C(=O)N[C@H]1CCCNC1` [AZD7762] + CS(=O)(=O)N1CCN(Cc2cc3nc(-c4cccc5[nH]ncc45)nc(N4CCOCC4)c3s2)CC1 [Pictilisib] (partner 1 µM), the relative viability (NCI-H460; first compound 0.01 µM) is reported as 0.356, the relative viability (NCI-H460; first compound 0.03162 µM) is reported as 0.382 and the relative viability (NCI-H460; first compound 0.1 µM) is reported as 0.417. It also gave a relative viability (NCI-H460; first compound 0.3162 µM) of 0.342, a relative viability (NCI-H460; first compound 1 µM) of 0.175 and a relative viability (NCI-H727; first compound 0.01 µM) of 0.429. For the same compound, the relative viability (NCI-H727; first compound 0.03162 µM) was 0.346, the relative viability (NCI-H727; first compound 0.1 µM) was 0.321 and the relative viability (NCI-H727; first compound 0.3162 µM) was 0.243. The relative viability (NCI-H727; first compound 1 µM) was 0.269, the relative viability (LCLC-97TM1; first compound 0.01 µM) was 0.201 and the relative viability (LCLC-97TM1; first compound 0.03162 µM) was 0.201. For the same compound, the relative viability (LCLC-97TM1; first compound 0.1 µM) was 0.277, the relative viability (LCLC-97TM1; first compound 0.3162 µM) was 0.216 and the relative viability (LCLC-97TM1; first compound 1 µM) was 0.152. For the same compound, the relative viability (NCI-H2347; first compound 0.01 µM) was 0.598, the relative viability (NCI-H2347; first compound 0.03162 µM) was 0.721 and the relative viability (NCI-H2347; first compound 0.1 µM) was 0.623. The relative viability (NCI-H2347; first compound 0.3162 µM) was 0.788, the relative viability (NCI-H2347; first compound 1 µM) was 0.292 and the relative viability (H3255; first compound 0.01 µM) was 0.527. It also gave a relative viability (H3255; first compound 0.03162 µM) of 0.448, a relative viability (H3255; first compound 0.1 µM) of 0.519 and a relative viability (H3255; first compound 0.3162 µM) of 0.514. The relative viability (H3255; first compound 1 µM) was 0.418, the relative viability (NCI-H650; first compound 0.01 µM) was 0.906 and the relative viability (NCI-H650; first compound 0.03162 µM) was 0.854. It also gave a relative viability (NCI-H650; first compound 0.1 µM) of 0.855, a relative viability (NCI-H650; first compound 0.3162 µM) of 1 and a relative viability (NCI-H650; first compound 1 µM) of 0.839. It also gave a relative viability (LK-2; first compound 0.01 µM) of 0.628, a relative viability (LK-2; first compound 0.03162 µM) of 0.485 and a relative viability (LK-2; first compound 0.1 µM) of 0.482. It also gave a relative viability (LK-2; first compound 0.3162 µM) of 0.481, a relative viability (LK-2; first compound 1 µM) of 0.34 and a relative viability (NCI-H1563; first compound 0.01 µM) of 0.648. For the same compound, the relative viability (NCI-H1563; first compound 0.03162 µM) was 0.629, the relative viability (NCI-H1563; first compound 0.1 µM) was 0.539 and the relative viability (NCI-H1563; first compound 0.3162 µM) was 0.617. For the same compound, the relative viability (NCI-H1563; first compound 1 µM) was 0.623, the relative viability (COR-L23; first compound 0.01 µM) was 0.743 and the relative viability (COR-L23; first compound 0.03162 µM) was 0.86. It also gave a relative viability (COR-L23; first compound 0.1 µM) of 0.818, a relative viability (COR-L23; first compound 0.3162 µM) of 0.68 and a relative viability (COR-L23; first compound 1 µM) of 0.288. For the same compound, the relative viability (201T; first compound 0.01 µM) was 0.707, the relative viability (201T; first compound 0.03162 µM) was 0.689 and the relative viability (201T; first compound 0.1 µM) was 0.668. For the same compound, the relative viability (201T; first compound 0.3162 µM) was 0.65, the relative viability (201T; first compound 1 µM) was 0.738 and the relative viability (PC-3 [JPC-3]; first compound 0.01 µM) was 0.774. For the same compound, the relative viability (PC-3 [JPC-3]; first compound 0.03162 µM) was 0.793, the relative viability (PC-3 [JPC-3]; first compound 0.1 µM) was 0.779 and the relative viability (PC-3 [JPC-3]; first compound 0.3162 µM) was 0.705. For the same compound, the relative viability (PC-3 [JPC-3]; first compound 1 µM) was 0.448, the relative viability (LCLC-103H; first compound 0.01 µM) was 0.659 and the relative viability (LCLC-103H; first compound 0.03162 µM) was 0.609. It also gave a relative viability (LCLC-103H; first compound 0.1 µM) of 0.574, a relative viability (LCLC-103H; first compound 0.3162 µM) of 0.629 and a relative viability (LCLC-103H; first compound 1 µM) of 0.514. The relative viability (A-427; first compound 0.01 µM) was 0.654, the relative viability (A-427; first compound 0.03162 µM) was 0.879 and the relative viability (A-427; first compound 0.1 µM) was 0.762. The relative viability (A-427; first compound 0.3162 µM) was 0.734, the relative viability (A-427; first compound 1 µM) was 0.49 and the relative viability (NCI-H23; first compound 0.01 µM) was 0.56. It also gave a relative viability (NCI-H23; first compound 0.03162 µM) of 0.533, a relative viability (NCI-H23; first compound 0.1 µM) of 0.446 and a relative viability (NCI-H23; first compound 0.3162 µM) of 0.358. For the same compound, the relative viability (NCI-H23; first compound 1 µM) was 0.228, the relative viability (NCI-H1944; first compound 0.01 µM) was 0.333 and the relative viability (NCI-H1944; first compound 0.03162 µM) was 0.395. For the same compound, the relative viability (NCI-H1944; first compound 0.1 µM) was 0.4, the relative viability (NCI-H1944; first compound 0.3162 µM) was 0.363 and the relative viability (NCI-H1944; first compound 1 µM) was 0.389. It also gave a relative viability (NCI-H1650; first compound 0.01 µM) of 0.62, a relative viability (NCI-H1650; first compound 0.03162 µM) of 0.657 and a relative viability (NCI-H1650; first compound 0.1 µM) of 0.515. It also gave a relative viability (NCI-H1650; first compound 0.3162 µM) of 0.391, a relative viability (NCI-H1650; first compound 1 µM) of 0.155 and a relative viability (NCI-H838; first compound 0.01 µM) of 0.544. The relative viability (NCI-H838; first compound 0.03162 µM) was 0.45, the relative viability (NCI-H838; first compound 0.1 µM) was 0.471 and the relative viability (NCI-H838; first compound 0.3162 µM) was 0.53. For the same compound, the relative viability (NCI-H838; first compound 1 µM) was 0.25, the relative viability (PC-14; first compound 0.01 µM) was 0.763 and the relative viability (PC-14; first compound 0.03162 µM) was 0.795. It also gave a relative viability (PC-14; first compound 0.1 µM) of 0.67, a relative viability (PC-14; first compound 0.3162 µM) of 0.474 and a relative viability (PC-14; first compound 1 µM) of 0.309. For the same compound, the relative viability (NCI-H1793; first compound 0.01 µM) was 0.388, the relative viability (NCI-H1793; first compound 0.03162 µM) was 0.371 and the relative viability (NCI-H1793; first compound 0.1 µM) was 0.336. For the same compound, the relative viability (NCI-H1793; first compound 0.3162 µM) was 0.278, the relative viability (NCI-H1793; first compound 1 µM) was 0.224 and the relative viability (LU99A; first compound 0.01 µM) was 0.381. The relative viability (LU99A; first compound 0.03162 µM) was 0.331, the relative viability (LU99A; first compound 0.1 µM) was 0.324 and the relative viability (LU99A; first compound 0.3162 µM) was 0.319. It also gave a relative viability (LU99A; first compound 1 µM) of 0.207, a relative viability (SW 1573; first compound 0.01 µM) of 0.569 and a relative viability (SW 1573; first compound 0.03162 µM) of 0.479. The relative viability (SW 1573; first compound 0.1 µM) was 0.554, the relative viability (SW 1573; first compound 0.3162 µM) was 0.54 and the relative viability (SW 1573; first compound 1 µM) was 0.451. For the same compound, the relative viability (HCC-44; first compound 0.01 µM) was 0.642, the relative viability (HCC-44; first compound 0.03162 µM) was 0.627 and the relative viability (HCC-44; first compound 0.1 µM) was 0.584. The relative viability (HCC-44; first compound 0.3162 µM) was 0.612 and the relative viability (HCC-44; first compound 1 µM) was 0.556.
